One assay has as its system M-HeLa. Put plainly: MTT cytotoxicity, M-HeLa. Format: cell-based, human. The following applies: M-HeLa. From the text:
(§1) Cells and Materials. For the experiments, we used tumor cell cultures M-HeLa clone 11 (epithelioid carcinoma of the cervix, subline HeLa, clone M-HeLa), HuTu 80, human duodenal adenocarcinoma, Hep-2, human epithelial cells, SH-SY5Y, human neuroblast-like cells, A549, human lung adenocarcinoma, PA-1, human ovarian teratocarcinoma and MCF-7, a human mammary ductal adenocarcinoma from the collection of the Institute of Cytology, Russian Academy of Sciences (St. Petersburg, Russia); human liver cells (Chang liver) were from the collection and the Research Institute of Virology of the Russian Academy of Medical Sciences (Moscow, Russia).
MTT Assay. The cytotoxic effect on cells was determined using the colorimetric method of cell proliferation—the MTT test. NADP-H-dependent cellular oxidoreductase enzymes can, under certain conditions, reflect the number of viable cells. These enzymes reduce the tetrazolium dye (MTT) 3-(4,5-dimethylthiazol-2-yl)-2,5-diphenyl-tetrazolium bromide to insoluble blue-violet formazan, which crystallizes inside the cell. The amount of formed formazan is proportional to the number of cells with active metabolism. Cells were seeded on a 96-well Nunc plate at a concentration of 5 × 10^3 cells per well in a volume of 100 μL of medium and cultured in a CO2 incubator at 37 °C until a monolayer was formed. After the nutrient medium was removed, 100 µL of the test drug solutions at the given dilutions were added to the wells, which were prepared directly in the nutrient medium with the addition of 5% DMSO to improve solubility. After 48 h of incubation of the cells with the tested compounds, the nutrient medium was removed from the plates and 100 µL of the nutrient medium without serum with MTT at a concentration of 0.5 mg/mL was added and incubated for 4 h at 37 °C. Formazan crystals were added 100 µL of DMSO to each well. Optical density was recorded at 540 nm on an Invitrologic microplate reader (Novosibirsk, Russia). The experiments for all compounds were repeated three times.
Statistical analysis. The IC50 values were calculated using the MLA–Quest Graph™ IC50 Calculator (AAT Bioquest, Inc., Sunnyvale, CA, USA), 14 February 2022. Statistical analysis was performed with the Mann–Whitney test (p < 0.05). Tabular and graphical data contain averages and standard error.

A further assay has as its system SH-SY5Y. Description: MTT cytotoxicity, SH-SY5Y. In kind it is cell-based. The settings on record: Homo sapiens, read-out: IC50 (µM) Cancer Cell Lines SH-SY5Y.
Text: as §1
(§2) MTT Assay. The cytotoxic effect on cells was determined using the colorimetric method of cell proliferation—the MTT test. NADP-H-dependent cellular oxidoreductase enzymes can, under certain conditions, reflect the number of viable cells. These enzymes reduce the tetrazolium dye (MTT) 3-(4,5-dimethylthiazol-2-yl)-2,5-diphenyl-tetrazolium bromide to insoluble blue-violet formazan, which crystallizes inside the cell. The amount of formed formazan is proportional to the number of cells with active metabolism. […] Optical density was recorded at 540 nm on an Invitrologic microplate reader (Novosibirsk, Russia). […]
(§3) Statistical analysis. The IC50 values were calculated using the MLA–Quest Graph™ IC50 Calculator (AAT Bioquest, Inc., Sunnyvale, CA, USA), 14 February 2022. […]

Assay [1] relates to HuTu 80 cells. Put plainly: Induction of apoptosis, flow cytometry (annexin V-Alexa Fluor 647 / propidium iodide). The following applies: IC50/2 and IC50, 24 h. Format: cell-based, human. Here is the method:
The ability of the new compounds, proposed as antitumor agents, to induce cell death via apoptosis is a critical feature for their potential use in therapy. The apoptosis-inducing effects of lead compounds were investigated using flow cytometry at IC50/2 and IC50 concentrations on the HuTu 80 cell line (Figure 6A).
(§4) Cell Culture. HuTu 80 cells at 1 × 10^6 cells/well in a final volume of 2 mL were seeded into six-well plates. After 48 h of incubation, various concentrations of lead compounds were added to wells.
Cell Apoptosis Analysis. The cells were harvested at 2000 rpm for 5 min and were then washed twice with ice-cold PBS, and resuspended in binding buffer. Next, the samples were incubated with 5 μL of annexin V-Alexa Fluor 647 (Sigma-Aldrich, St Louis, MO, USA) and 5 μL of propidium iodide for 15 min at room temperature in the dark. Finally, the cells were analyzed using flow cytometry (Guava easy Cyte, MERCK, Rahway, NJ, USA) within 1 h. The experiments were repeated three times.

The test system of a further assay is PA-1 cells. Put plainly: Cell glycolysis, Seahorse XF Glycolysis Stress Test (ECAR). In kind it is cell-based, human. The settings on record: 100 μM. The text has this:
To investigate whether the cytotoxicity of 5a and 6a is related to their effects on metabolism, we quantified their inhibition of glycolysis in human ovarian teratocarcinoma PA-1 cells using Seahorse technology, which allows the rapid assessment of glycolytic metabolism in cells using a proton efflux rate assay (ECAR). It is well known that glucose in cells is converted to pyruvate and then either to lactate in the cytoplasm or CO2 and water in the mitochondria. As glucose is converted to lactate, protons are released into the extracellular environment to maintain intracellular pH homeostasis. This extracellular acidification is measured in real time and provides insight into the rate of glycolytic proton efflux. PA-1 cells are used for the study of glycolysis since a pronounced deregulation of cellular energy is observed in the case of ovarian cancer, mediating the growth, invasion and migration of tumor cells.
Measuring ECAR under these conditions provides the parameters presented in Figure 9c,d: the level of glycolysis and glycolytic capacity.
Determination of cell glycolysis. Cell glycolysis was measured with Seahorse XF Glycolysis Stress Test Kit and Seahorse Bioscience XF96 Extracellular Flux Analyzer (Agilent Technology, Boston, MA, USA). […] ECAR levels were examined and analyzed using Seahorse Bioscience XF96 Extracellular Flux Analyzer. […]

Another assay has as its system PA-1. Description: MTT cytotoxicity, PA-1. In kind it is cell-based. The settings on record: Homo sapiens, read-out: IC50 (µM) Cancer Cell Lines PA-1.
Text: as §1, §2, §3

In assay [2] the test system is HuTu 80 cells. Description: Mitochondrial membrane potential, JC-10 flow cytometry. Format: cell-based, human. The following applies: 24 h treatment, IC50/2 and IC50. As for the experimental part: In this study, we used the fluorescent dye JC-10 from the Mitochondria Membrane Potential Kit (Sigma, St. Louis, MO, USA). Changes in mitochondrial membrane potential under the influence of lead compounds 5a and 6a were determined at IC50/2 and IC50 concentrations on the HuTu 80 cell line. When JC-10 accumulates in the mitochondrial matrix, it forms fluorescent J-aggregates. Their red fluorescence is characteristic for normal cells with high mitochondrial membrane potential. The reduction in mitochondrial membrane potential in apoptotic cells allows JC-10 to escape out of the mitochondria in a monomeric form which has green fluorescence. The mitochondrial membrane potential of HuTu 80 cells is decreased after 24 h treatment with the lead compounds 5a and 6a. The change becomes more pronounced as the concentrations of the tested compounds approach IC50 (Figure 7).
as §4
Mitochondrial Membrane Potential. […] After the cells were rinsed three times and suspended in PBS, the JC-10 fluorescence was observed using flow cytometry (Guava easy Cyte, MERCK, Rahway, NJ, USA).

The next assay has as its system MCF-7. Description: MTT cytotoxicity, MCF-7. In kind it is cell-based. The settings on record: Homo sapiens, MCF7, read-out: IC50 (µM) Cancer Cell Lines MCF-7.
Text: as §1, §2, §3

In the case of `O=C(C[P+](c1ccccc1)(c1ccccc1)c1ccccc1)NCCC1c2c(ccc3ccccc23)Oc2ccc3ccccc3c21` [Compound 6a], the IC50 in the assay on M-HeLa (Homo sapiens, MTT, 48 h incubation, read-out: IC50 (µM) Cancer Cell Lines M-HeLa) worked out at 11 ± 8.7 µM; in the assay on SH-SY5Y it was 10.9 ± 0.23 µM; with PA-1, 11.2 ± 1.36 µM; with MCF-7 it was 7.12 ± 0.76 µM. Further, in the assay on M-HeLa, the “times more effective than the reference drug sorafenib” value was “three times more effective”. Besides, in the assay on HuTu 80 cells [1], the “apoptosis-inducing effect (in words)” value is given as “dose-dependent apoptosis”. In addition, the “glycolysis (ECAR) at maximum concentration (in words)” value with PA-1 cells is listed as “completely blocking glycolysis”. Moreover, the “mitochondrial membrane potential (in words)” value in the assay on HuTu 80 cells [2] was “decreased”.
